The results in this text go back to patent publication US8563714B2, “Bridged spiro [2.4] heptane derivatives as ALX receptor and/or FPRL2 agonists” (Actelion Pharmaceuticals Ltd., priority 2009, dated 2013).

One assay concerns the target T1, human ALX receptor (Homo sapiens, UniProt P25090).
T1 construct: expressed in transfected cells; host or cells: HEK293 (HEK293-hALXR-Gα16)
T1 sequence (P25090 1-351): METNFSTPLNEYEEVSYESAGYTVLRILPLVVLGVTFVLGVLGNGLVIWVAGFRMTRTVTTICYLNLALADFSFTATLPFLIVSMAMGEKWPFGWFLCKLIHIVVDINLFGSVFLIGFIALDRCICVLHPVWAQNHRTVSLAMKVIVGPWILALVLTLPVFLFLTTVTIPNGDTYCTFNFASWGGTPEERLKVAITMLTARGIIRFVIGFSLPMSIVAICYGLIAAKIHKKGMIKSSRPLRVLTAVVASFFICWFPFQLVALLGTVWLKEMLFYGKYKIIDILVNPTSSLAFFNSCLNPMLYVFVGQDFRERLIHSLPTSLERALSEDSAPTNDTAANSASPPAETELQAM
As to the kind of experiment: Intracellular calcium measurements (FLIPR), agonistic activity in HEK293-hALXR-Gα16 cells. The assay is classed as cell-based. To be noted: Fluo-4 calcium FLIPR, normalized to WKYMVm 10 nM. In a few lines:
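Agonist-induced calcium flux was recorded by FLIPR (488/540 nm) in HEK293-hALXR-Gα16 cells pre-loaded with Fluo-4 AM (1 μM, 60 min, 37°C). Peak signal above baseline, after subtracting buffer addition, was expressed relative to WKYMVm at 10 nM final.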
(Calcium assays in cells follow changes in intracellular calcium, usually with a dye or a luminescent sensor.)

In the next assay the target is T2, human FPRL2 (Homo sapiens, UniProt P25089).
T2 construct: expressed in transfected cells; host or cells: HEK293 (HEK293-hFPRL2-Gα16)
T2 sequence (P25089 1-353): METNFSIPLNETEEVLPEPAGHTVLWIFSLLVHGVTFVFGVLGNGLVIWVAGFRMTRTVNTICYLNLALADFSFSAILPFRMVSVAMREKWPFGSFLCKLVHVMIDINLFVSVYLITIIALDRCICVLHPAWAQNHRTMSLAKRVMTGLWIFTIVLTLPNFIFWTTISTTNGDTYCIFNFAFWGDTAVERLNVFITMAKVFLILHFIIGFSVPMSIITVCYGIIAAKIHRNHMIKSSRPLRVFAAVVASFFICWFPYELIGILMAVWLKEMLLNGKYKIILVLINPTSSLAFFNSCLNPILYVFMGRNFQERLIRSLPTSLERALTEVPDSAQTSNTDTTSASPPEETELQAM
In words: Intracellular calcium measurements (FLIPR), agonistic activity in HEK293-hFPRL2-Gα16 cells. The assay is classed as cell-based. To be noted: Fluo-4 calcium FLIPR, normalized to GLY14-Humanin 100 nM. In outline: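 Peak values after baseline subtraction are expressed relative to 100 nM Gly14-Humanin; compounds diluted in assay buffer from 10 mM DMSO stocks.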

One may read the EC50 as the concentration that produces a half-maximal response.

Bounds are passed on as bounds.

In the case of `CNC(=O)C(NC(=O)C1C(C(=O)Nc2ccc(Br)cc2)C2C=CC1C21CC1)C(C)(C)C` [Example 96, (5R*)—N^5-(4-Bromophenyl)-(6R*)—N^6—[(2S)-3,3-dimethyl-1-(methylamino)-1-oxobutan-2-yl]-(4S*,7R*)-[4,7-ethenylene-spiro[2.4]heptane]-5,6-dicarboxamide], the EC50 at human ALX receptor amounted to 373 nM; on human FPRL2, 8050 nM.

In the case of `COCC(Cc1ccccc1)NC(=O)C1C(C(=O)Nc2ccc(Br)cc2)C2C=CC1C21CC1` [Example 100, (5R*)—N^5-(4-Bromophenyl)-(6R*)—N^6-[(1S)-2-methoxy-1-benzyl-ethyl]-(4S*,7R*)-[4,7-ethenylene-spiro[2.4]heptane]-5,6-dicarboxamide], the EC50 on human ALX receptor amounted to 735 nM; at human FPRL2, 6110 nM.

On to `Cc1nc(CCNC(=O)C2C(C(=O)Nc3ccc(Br)cc3)C3CCC2C32CC2)[nH]c1C` (stereo not drawn) [Example 112, (5R*)—N^5-(4-Bromophenyl)-(6R*)—N^6-(2-(4,5-dimethyl-1H-imidazol-2-yl)-ethyl)-(4S*,7R*)-[4,7-ethylene-spiro[2.4]heptane]-5,6-dicarboxamide], for which the EC50 is 8.3 nM on human ALX receptor and 57 nM on human FPRL2.

For `O=C(NCCCCN1CCCC1)[C@H]1[C@H](C(=O)Nc2ccc(Br)cc2)[C@@H]2CC[C@H]1C21CC1` [Example 113, (5R)—N^5-(4-Bromophenyl)-(6R)—N^6-(4-pyrrolidin-1-yl-butyl)-(4S,7R)-[4,7-ethylene-spiro[2.4]heptane]-5,6-dicarboxamide], the EC50 at human ALX receptor stood at 0.35 nM; on human FPRL2, 15 nM.

For `O=C(NCCCCN1CCCC1)C1C(C(=O)NCCCn2ccnc2)C2C=CC1C21CC1` (stereo not drawn) [Example 141, (5R*)—N^5-(3-(1H-Imidazol-1-yl)-propyl)-(6R*)—N^6-(4-pyrrolidin-1-yl-butyl)-(4S*,7R*)-[4,7-ethenylene-spiro[2.4]heptane]-5,6-dicarboxamide], the EC50 at human ALX receptor is 835 nM; at human FPRL2, 1600 nM.

Turning to `Cc1cc(C)n(CCC(=O)NCC2C(C(=O)Nc3ccc(Br)cc3)C3C=CC2C32CC2)n1` (stereo not drawn) [Example 159, (5R*)—N^5-(4-Bromo-phenyl)-(6R*)-6-[(3-(3,5-dimethyl-pyrazol-1-yl)-propionylamino)-methyl]-(4S*,7R*)-[4,7-ethenylene-spiro[2.4]heptane]-5-carboxamide], the EC50 was 13 nM on human ALX receptor and 2370 nM at human FPRL2.

In the case of `O=C(NCC1C(C(=O)Nc2ccc(Br)cc2)C2C=CC1C21CC1)c1cnoc1-c1ccccc1` (stereo not drawn) [Example 160, (5R*)—N^5-(4-Bromo-phenyl)-(6R*)-6-{[(5-phenyl-isoxazole-4-carbonyl)-amino]-methyl}-(4S*,7R*)-[4,7-ethenylene-spiro[2.4]heptane]-5-carboxamide], the values for the EC50 on human ALX receptor and on human FPRL2 were 37 nM and > 25000 nM, respectively.

`CC(=O)c1ccc(CNC(=O)[C@H]2[C@H](C(=O)NCCCCN3CCCC3)[C@H]3C=C[C@@H]2C32CC2)o1` [Example 195, (5R)—N^5-(5-Acetyl-furan-2-yl-methyl)-(6R)—N^6-(4-pyrrolidin-1-yl-butyl)-(4S,7R)-[4,7-ethenylene-spiro[2.4]heptane]-5,6-dicarboxamide]: the EC50 came out at 28 nM on human ALX receptor and 647 nM on human FPRL2.

As for `CC(=O)c1ccc(CNC(=O)C2C(C(=O)NCCCCN3CCCC3)C3CCC2C32CC2)o1` [Example 196, (5R)—N^5-(5-Acetyl-furan-2-yl-methyl)-(6R)—N^6-(4-pyrrolidin-1-yl-butyl)-(4S,7R)-[4,7-ethylene-spiro[2.4]heptane]-5,6-dicarboxamide], the 50% effective concentration (EC50) worked out at 21 nM on human ALX receptor and 1080 nM at human FPRL2.

For `CCN1CCN(CCCCNC(=O)[C@H]2[C@H](C(=O)Nc3ccc(Br)cc3)[C@@H]3C=C[C@H]2C32CC2)CC1` [Example 208, (5R)—N^5-(4-Bromophenyl)-(6R)—N^6-(4-(4-ethyl-piperazin-1-yl)-butyl)-(4S,7R)-[4,7-ethenylene-spiro[2.4]heptane]-5,6-dicarboxamide], the EC50 on human ALX receptor was determined as 2.3 nM; on human FPRL2 it was 15 nM.

Turning to `O=C(NCCCCN1CCCCC1)[C@H]1[C@H](C(=O)Nc2ccc(Br)cc2)[C@@H]2C=C[C@H]1C21CC1` [Example 209, (5R)—N^5-(4-Bromophenyl)-(6R)—N^6-(4-piperidino-butyl)-(4S,7R)-[4,7-ethenylene-spiro[2.4]heptane]-5,6-dicarboxamide], the EC50 was 0.07 nM at human ALX receptor and 58 nM on human FPRL2.

As to `O=C(NCCCCN1CCC1)[C@H]1[C@H](C(=O)Nc2ccc(Br)cc2)[C@@H]2C=C[C@H]1C21CC1` [Example 210, (5R)—N^5-(4-Bromophenyl)-(6R)—N^6-(4-(azetidin-1-yl)butyl)-(4S,7R)-[4,7-ethenylene-spiro[2.4]heptane]-5,6-dicarboxamide], the EC50 stood at 0.4 nM on human ALX receptor and 200 nM at human FPRL2.

Regarding `O=C(NCCCCN1CCOCC1)[C@H]1[C@H](C(=O)Nc2ccc(Br)cc2)[C@@H]2C=C[C@H]1C21CC1` [Example 211, (5R)—N^5-(4-Bromophenyl)-(6R)—N^6-(4-morpholino-butyl)-(4S,7R)-[4,7-ethenylene-spiro[2.4]heptane]-5,6-dicarboxamide], the EC50 at human ALX receptor amounted to 0.53 nM; on human FPRL2, 423 nM.

In the case of `CN1CCCN(CCCCNC(=O)[C@H]2[C@H](C(=O)Nc3ccc(Br)cc3)[C@@H]3C=C[C@H]2C32CC2)CC1` [Example 212, (5R)—N^5-(4-Bromophenyl)-(6R)—N^6-(4-(4-methyl-1,4-diazepan-1-yl)butyl)-(4S,7R)-[4,7-ethenylene-spiro[2.4]heptane]-5,6-dicarboxamide], the EC50 was 0.89 nM at human ALX receptor and 12 nM at human FPRL2.

With `CN1CCN(CCCCNC(=O)[C@H]2[C@H](C(=O)Nc3ccc(Br)cc3)[C@@H]3C=C[C@H]2C32CC2)CC1` [Example 213, (5R)—N^5-(4-Bromophenyl)-(6R)—N^6-(4-(4-methyl-piperazin-1-yl)butyl)-(4S,7R)-[4,7-ethenylene-spiro[2.4]heptane]-5,6-dicarboxamide], the values for the concentration for a half-maximal effect (EC50) at human ALX receptor and on human FPRL2 were 4.1 nM and 16 nM, respectively.

For `O=C(NCCCC(=O)N1CCCC1)[C@H]1[C@H](C(=O)Nc2ccc(Br)cc2)[C@@H]2C=C[C@H]1C21CC1` [Example 214, (5R)—N^5-(4-Bromophenyl)-(6R)—N^6-(4-pyrrolidino-4-oxobutyl)-(4S,7R)-[4,7-ethenylene-spiro[2.4]heptane]-5,6-dicarboxamide], the concentration giving a half-maximal response (EC50) came out at 6.1 nM at human ALX receptor and 338 nM on human FPRL2.

With `O=C(NCCOCCN1CCCC1)[C@H]1[C@H](C(=O)Nc2ccc(Br)cc2)[C@@H]2C=C[C@H]1C21CC1` [Example 215, (5R)—N^5-(4-Bromophenyl)-(6R)—N^6-(2-(2-(pyrrolidin-1-yl)ethoxy)ethyl)-(4S,7R)-[4,7-ethenylene-spiro[2.4]heptane]-5,6-dicarboxamide], the values for the EC50 on human ALX receptor and on human FPRL2 were 0.72 nM and 95 nM, respectively.

For the molecule `O=C(N[C@@H]1CC[C@@H](CN2CCCC2)OC1)[C@H]1[C@H](C(=O)Nc2ccc(Br)cc2)[C@@H]2C=C[C@H]1C21CC1` [Example 216, (5R)—N^5-(4-Bromophenyl)-(6R)—N^6-((3R,6S)-6-(pyrrolidin-1-ylmethyl)tetrahydro-2H-pyran-3-yl)-(4S,7R)-[4,7-ethenylene-spiro[2.4]heptane]-5,6-dicarboxamide], the concentration giving a half-maximal response (EC50) came out at 2.7 nM at human ALX receptor and 297 nM at human FPRL2.

With `CC(=O)N1CCN(CCCCNC(=O)[C@H]2[C@H](C(=O)Nc3ccc(Br)cc3)[C@@H]3C=C[C@H]2C32CC2)CC1` [Example 217, (5R)—N^5-(4-Bromophenyl)-(6R)—N^6-(4-(4-acetyl-piperazin-1-yl)butyl)-(4S,7R)-[4,7-ethenylene-spiro[2.4]heptane]-5,6-dicarboxamide], the EC50 was 38 nM on human ALX receptor and 61 nM on human FPRL2.

In the case of `O=C(NCCCCN1CC[C@@H](F)C1)[C@H]1[C@H](C(=O)Nc2ccc(Br)cc2)[C@@H]2C=C[C@H]1C21CC1` [Example 219, (5R)—N^5-(4-Bromophenyl)-(6R)—N^6-(4((3R)-fluoropyrrolidino)butyl)-(4S,7R)-[4,7-ethenylene-spiro[2.4]heptane]-5,6-dicarboxamide], the results for the EC50 on human ALX receptor and on human FPRL2 were 0.3 nM and 174 nM, respectively.

Consider `O=C(NCCCCN1CC[C@H](F)C1)[C@H]1[C@H](C(=O)Nc2ccc(Br)cc2)[C@@H]2C=C[C@H]1C21CC1` [Example 220, (5R)—N^5-(4-Bromophenyl)-(6R)—N^6-(4-((3S)-fluoropyrrolidino)butyl)-(4S,7R)-[4,7-ethenylene-spiro[2.4]heptane]-5,6-dicarboxamide], for which the EC50 was found to be 0.35 nM at human ALX receptor and 235 nM on human FPRL2.
